Experimental data from patent US20190175491A1, “TOPICAL COMPOSITIONS OF APREMILAST” (TORRENT PHARMACEUTICALS LIMITED, priority 2016, published 2019).

Tests used:
[1] = oral Apremilast; cited from earlier work
[2] = cited from earlier work
[3] = Solubility of apremilast; assay type: physicochemical
Source text: Apremilast is insoluble in water. Even in polar solvent phase, only 0.066% of apremilast was found soluble. Therefore, it is challenging to formulate a topical composition of apremilast having an amount, which provides effective concentration of apremilast at the site of action.

apremilast found soluble in polar solvent phase [3]: 0.066%
SMILES: CCOc1cc([C@@H](CS(C)(=O)=O)N2C(=O)c3cccc(NC(C)=O)c3C2=O)ccc1OC [Apremilast, N-{2-[(1S)-1-(3-Ethoxy-4-methoxyphenyl)-2-(methylsulfonyl)ethyl]-1,3-dioxo-2,3-dihydro-1H-isoindol-4-yl} acetamide]
most commonly reported adverse reactions [1]: Diarrhea, nausea and headache | solubility in water [2]: insoluble
